This note sets out measurements from patent US10017507B2, “Diaza-benzofluoranthrene compounds” (HARBIN PHARMACEUTICAL GROUP CO., LTD. GENERAL …, priority 2015, dated 2018).

Series [1] deals with pentylenetetrazole-kindling model of epilepsy. Briefly: Inhibition effect on pentylenetetrazole-kindling model of epilepsy in cynomolgus monkey. In kind it is in vivo. The note with it: 10 mg/kg; for latency prolonged than the Vehicle group / latency, relative increase versus Vehicle group / lasting time of convulsions shortened compared with the Vehicle Group / lasting time of convulsions, relative reduction versus Vehicle Group / times of clonic and tonic convulsion reduced compared with the Vehicle Group / times of clonic and tonic convulsion, relative reduction versus Vehicle Group: versus Vehicle group; for latency for the onset of epilepsy seizure: continuous administration of 8 days, pentylenetetrazole 40 mg/kg s.c.; for latency for the onset of epilepsy seizure / lasting time of clonic convulsions and tonic convulsions / times of clonic convulsion and tonic convulsion: Mean±SEM; for lasting time of clonic convulsions and tonic convulsions: pentylenetetrazole-kindled; for times of clonic convulsion and tonic convulsion: within 24 hours after pentylenetetrazol. From the text:
Test 3: Inhibition Effect on Pentylenetetrazole-Kindling Model of Epilepsy in Cynomolgus Monkey In this test, six male cynomolgus monkeys were selected, and each monkey was intragastrically administrated by nasal feeding. Besides pentylenetetrazole which was administrated by subcutaneous injection, the compound of Example 29 and carbamazepine were consecutively administered for 8 days, respectively. The monkeys were respectively given a solvent prior to the first administration, and were injected subcutaneously with pentylenetetrazole immediately after the last administration. The administration interval between two tests was about 10 days. Pentylenetetrazine was administered once to induce epilepsy prior to the first administration of the compound of Example 29. The dosage was calculated according to the latest weight of the animal, and the date of first administration was designated as Day 1. Surgical procedure: the animals were fed adaptively for at least one week in feeding facilities, and then they were anesthetized during preoperative preparation according to the company standards. The main operation procedures were as follows: cutting the head skin, fully exposing the skull, stripping the periosteum, and cleaning the skull surface with a dry absorbent cotton; drilling 2 holes on the skull of the cynomolgus monkey with cranial drill, implanting a brain electrode, and fixing it with dental cement; then burying two myoelectric electrodes into the neck muscles of the cynomolgus monkey, and burying eye-electric electrodes into the bilateral eye muscles, fixing the implant body in the abdominal muscle layer. Postoperative care was performed according to the company standards. The raw data was collected by Ponemah of DSI system, and analyzed and revised by Neuronscore. The data was shown by mean±standard error (Mean±SEM), statistical analysis was performed by t-test and ANOVA. P<0.05 indicated a significant difference, P<0.01 indicated a very significant difference, P<0.001 indicated an extremely significant difference. The characteristics of electroencephalic response and electroencephalic energy for pentylenetetrazole-kindling epilepsy were observed and analyzed, and then a comparison was made between Example 29 and carbamazepine in terms of the latency for the onset of epilepsy seizure, and the times and lasting time of clonic convulsions and tonic convulsions in cynomolgus monkey pentylenetetrazole-kindling model, so as to compare the pharmacodynamic inhibitory effect of Example 29 and carbamazepine on cynomolgus monkey pentylenetetrazole-kindling model. After the cynomolgus monkeys were injected subcutaneously with 40 mg/kg pentylenetetole on the back and were induced epilepsy-like behaviors, the electroencephalic response, electromyogrphic response and locomotor activity were detected by DSI wireless remote sensing signal recording system. […] The behaviors were divided into paroxysmal activity, clonic convulsion and tonic convulsions according to the status of epilepsy. The changes of electroencephalic energy within 4-24 Hz were statistically analyzed when cynomolgus monkeys suffered epileptic seizure within 24 hours after injection of pentylenetetrazole.

Series [2] is described as follows: Comparison of pharmacokinetics in Beagle dogs. In kind it is in vivo. The note with it: for clearance / half-life / bioavailability: male, dog, plasma; for half-life: read-out: Half-life period (converted). The method, then:
Test 2: Comparison of Pharmacokinetics in Beagle Dogs
In this study, male Beagle dogs were given the compounds of the examples and vinpocetine (as a control compound) by intravenous injection or oral administration, respectively, then the drug concentration in plasma at different time points was determined by the LC/MS/MS method, so as to investigate the pharmacokinetic characteristics of the two test drugs in Beagle dogs.
Eight healthy adult Beagle dogs with a weight of 7.0 to 10.83 kg (purchased from Beijing Marshall Biotechnology Co., Ltd.) were selected. The formulation for intravenous injection group was DMSO: PEG400: water=5:20:75. A solvent was added to the test compound which had been accurately weighed, after vortex oscillation and ultrasound, a clear solution with a final concentration of 1.0 mg/mL was obtained. The solution was filtered with a filter membrane of 0.22 μm and stored at room temperature for use. The formulation for oral administration group was PEG 400: Tween 80: H2O=40:10:50. A solvent was added to the test compound which had been accurately weighed, after vortex oscillation and ultrasound, a clear solution with a final concentration of 1.5 mg/mL was obtained. The formulations for both the intravenous injection and the oral administration were formulated on the day of administration. The intravenous dose was 1.0 mg/kg, and the oral dose was 3.0 mg/kg. The whole blood for each test compound was respectively taken at 0.083 (for intravenous injection only), 0.25, 0.5, 1, 2, 4, 6, 8 and 24 hours after administration. The whole blood was centrifuged (3000 g, 15 min, 4° C.) to obtain the plasma. The drug concentration in each plasma sample was determined by LC/MS/MS method. The data about drug concentration in plasma was processed by WinNonlin™ Version 6.3 (Pharsight, Mountain View, Calif.) software, using a non-compartmental model, and the pharmacokinetic parameters were calculated by using the linear-logarithmic trapezoidal method.

The next series addresses T1, PDE1A (Homo sapiens, UniProt P54750).
T1 construct: purchased SignalChem
Briefly: In vitro detection of phosphodiesterase (PDE): PDE1A enzyme activity by fluorescence polarization immunoassay. In kind it is biochemical. The following applies: human-derived enzyme, cAMP or cGMP substrate; read-out: IC50s for PDE1. A digest of the protocol: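 Human PDE1A (enzyme solution 3 pM) was preincubated 10 min at RT with compound in 10 mM Tris-HCl pH 7.5, 5 mM MgCl2, 0.01% Brij 35, 1 mM DTT, 1% DMSO, with Ca2+-calmodulin cofactor. Reaction ran 1 h at RT on […] cAMP or cGMP, then 90 min with antibody/tracer. FP at Ex/Em 620/688 was converted to AMP/GMP via standard curve to give IC50.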

Turning to `NC(=O)N1c2ccccc2C=Cc2ccccc21` [carbamazepine, reference compound], in series [1] (8 days), the “latency prolonged than the Vehicle group” value is recorded as 20.34 min and the “latency, relative increase versus Vehicle group” value worked out at 81%. Further, in series [1], the “latency for the onset of epilepsy seizure” value came out at 45.20 ± 9.11 min; the “lasting time of clonic convulsions and tonic convulsions” value stood at 4.71 ± 2.35 min; the “lasting time of convulsions shortened compared with the Vehicle Group” value was determined as 6.97 min; the “lasting time of convulsions, relative reduction versus Vehicle Group” value is recorded as 60%. Besides, the “times of clonic convulsion and tonic convulsion” value in series [1] came out at 39.20±14.92. In series [1] (within 24 hours), the “times of clonic and tonic convulsion reduced compared with the Vehicle Group” value is “about 68 times”; the “times of clonic and tonic convulsion, relative reduction versus Vehicle Group” value is 63%.

For `CC[C@@]12C=C(c3nc(C)no3)n3c4c(c5ccccc53)CCN(CCC1)[C@H]42` [Example 29, 5-((4^1S,13aS)-13a-ethyl-2,3,4^1,5,6,13a-hexahydro-1H-indolo[3,2,1-de]pyrido[3,2,1-ij][1,5]naphthyridin-12-yl)-3-methyl-1,2,4-oxadiazole], in series [2] (intravenous injection 1 mg/kg), the “area under the concentration-time curve (0-inf)” value (“area” for short) is 4.04 µM·h; the clearance (commonly the rate of elimination divided by the concentration) stood at 12 mL/min/kg; the half-life – broadly, the time needed for the level to fall by half in the phase considered – is 9.42 h. In addition, in series [2] (oral administration 3 mg/kg), the bioavailability (commonly dose-corrected exposure relative to a reference, in per cent) worked out at 37.5%; the Peak concentration was determined as 1299 nM; the “Time to Peak” value worked out at 1.0 h; the “area” value was determined as 4.545 µM·h. In addition, in series [2] (relative to vinpocetine), the “half-life longer than that of vinpocetine” value was determined as 56% and the “plasma clearance lower than that of vinpocetine” value is recorded as “about 85%”. The IC50 on PDE1A fell in the range of 1 to 20 µM. Also, in series [1] (8 days), the “latency prolonged than the Vehicle group” value turned out to be 39.24 min and the “latency, relative increase versus Vehicle group” value came to 160%. Further, the “latency prolonged than the carbamazepine group” value in series [1] (8 days, versus carbamazepine group) came out at 18.9 min. In addition, in series [1], the “latency for the onset of epilepsy seizure” value is 64.10 ± 13.21 min; the “lasting time of clonic convulsions and tonic convulsions” value stood at 2.61 ± 0.99 min; the “lasting time of convulsions shortened compared with the Vehicle Group” value came out at 9.07 min; the “lasting time of convulsions, relative reduction versus Vehicle Group” value stood at 78%. In series [1], the “times of clonic convulsion and tonic convulsion” value was 25.7±7.07. In addition, the “lasting time of convulsions shortened compared with the carbamazepine group” value in series [1] (versus carbamazepine group) is reported as “about 2.1 min”. Further, in series [1] (within 24 hours), the “times of clonic and tonic convulsion reduced compared with the Vehicle Group” value is given as “about 82 times”; the “times of clonic and tonic convulsion, relative reduction versus Vehicle Group” value turned out to be 76%. In addition, in series [1] (within 24 hours, versus carbamazepine group), the “times of clonic and tonic convulsion reduced compared with the carbamazepine group” value is recorded as “about 14 times”.

For the compound `CCOC(=O)C1=C[C@]2(CC)CCCN3CCc4c(n1c1ccccc41)[C@@H]32` [Vinpocetine, reference compound], in series [2] (intravenous injection 1 mg/kg), the “area” value turned out to be 0.588 µM·h, the clearance was 80.5 mL/min/kg and the half-life is 6.03 h. Also, in series [2] (oral administration 3 mg/kg), the bioavailability stood at 12.3%, the Peak concentration came out at 142 nM, the “Time to Peak” value is recorded as 0.5 h and the “area” value was found to be 0.216 µM·h.
